From US20140294745A1, “CORAL EXTRACT FOR SKIN WHITENING, MOISTURE RETENTION, ELASTICITY IMPROVEMENT, ANTI-INFLAMMATION AND OCCLUSION OF WOUNDS AND EXTRACTING METHOD THEREOF” (UNI-PRESIDENT BIOTECH CO., LTD., priority 2013, published 2014)

Legend:
[1] = system: zebra fishes (AB strain Danio rerio); assay: Whitening activity analysis in vivo (zebra fish melanin); settings: 20 mM; immersed forty-eight hours
Excerpt: The test uses zebra fishes (AB strain Danio rerio), in which fish edge is above four months, as test brood fishes, and the fishes are bred in an acrylic water tank having a filter and a circulation system. Water temperature is controlled at 28.5 degrees Celsius, and light-dark cycle is respectively controlled at fourteen and ten hours.
The medicine to be tested must be dissolved in 100% DMSO solution, and finally concentration must also concern DMSO and medicine concentration.
Embryos that have been fertilized for nine hours is taken and injected into a 96 well culture dish, and three embryos and 100 μl Hank's buffer are disposed in each well. 100 μl taken from the prepared medicine is injected into each well, and after adequately and uniformly mixing the mixture, an orifice plate is covered to avoid draining water content away to change the concentration. […]
Obtained fish images are opened by image processing software (Image J 1.43 g; National Institute of Health, Bethesda, Md., U.S.A.), and under ranges where the minimum threshold is set at 0, and where the maximum threshold is set at 85, melanin of each group of zebra fishes is performed with quantitative analysis.

Mushroom tyrosinase = Mushroom tyrosinase inhibition capability analysis; type: biochemical; settings: positive control, 100 μM
Procedure: In a 96 well plate, 70 μl PBS, 20 μl specimen solution having different concentrations is added into each pore, and the mixture is uniformly mixed. Next, 10 μl 12U tyrosinase is added to place the plate in the cultivation chest at 37 degrees Celsius to react for thirty minutes. 10 μl 15 mM L-dopa is further added, and after continuously placing the plate in the cultivation chest to react for thirty minutes, the variance of absorbance is measured at 492 nm wavelengths. By taking H2O or 50% EtOH as the control group, the anti-oxidation rate of the object to be tested is obtained by inhibition of tyrosinase % (IT %) as the following formula. When peroxidation rate of lipid inhibition is higher, antioxidative function is stronger. Inhibition of tyrosinase %, IT %=[1−(absorbance of sample at 492 nm)/(absorbance of the control group that is not added with samples at 492 nm)]×100.

SMILES	melanin content of zebra fishes [1]	Mushroom tyrosinase inhibition capability (Mushroom tyrosinase)
OC[C@H]1O[C@@H](Oc2ccc(O)cc2)[C@H](O)[C@@H](O)[C@@H]1O [arbutin]	50%	
O=C1O[C@H]([C@@H](O)CO)C(O)=C1O [vitamin C]		38.0 ± 0.4%
